In patent US20170190671A1, “BIS(ARYL)CATECHOL DERIVATIVES AS HERBICIDES” (E I DU PONT DE NEMOURS AND COMPANY, priority 2014, published 2017):

What was measured:
Experiment in all cases: Test F preemergence
Type in all cases: in vivo
Details in all cases: 21 days, scale 0 to 100
[1] = system: Italian ryegrass (Lolium multiflorum)
From the text: (§1) Seeds of plant species selected from bermudagrass (Cynodon dactylon), Surinam grass (Brachiaria decumbens), large (Lg) crabgrass (Digitaria sanguinalis), crabgrass, naked (naked crabgrass, Digitaria nuda), foxtail, green (green foxtail, Setaria viridis), johnsongrass (Sorghum halepense), kochia (Kochia scoparia), morningglory (pitted morningglory, Ipomoea lacunosa), nutsedge, purple (purple nutsedge, Cyperus rotundus), ragweed (common ragweed, Ambrosia elatior), mustard, black (black mustard, Brassica nigra), guineagrass (Panicum maximum), dallisgrass (Paspalum dilatatum), barnyardgrass (Echinochloa crus-galli), sandbur (southern sandbur, Cenchrus echinatus), sowthistle (common sowthistle, Sonchus oleraceous), Italian ryegrass (Lolium multiflorum), signalgrass (broadleaf signalgrass, Brachiaria platyphylla), dayflower (Virginia (VA) dayflower, Commelina virginica), bluegrass (annual bluegrass, Poa annua), quackgrass (Elytrigia repens), mallow (common mallow, Malva sylvestris), buckwheat, wild (wild buckwheat, Polygonum convolvulus), leafy spurge (Euphorbia esula), chickweed (common chickweed, Stellaria media), wild poinsettia (Euphorbia heterophylla), and pigweed (Amaranthus retroflexus) were planted into a blend of loam soil and sand and treated preemergence with test a chemical formulated in a non-phytotoxic solvent mixture which included a surfactant.
(§2) Treated plants and controls were maintained in a greenhouse for 21 days, after which time all species were compared to controls and visually evaluated. Plant response ratings, summarized in Table F, are based on a scale of 0 to 100 where 0 is no effect and 100 is complete control. A dash (-) response means no test result.

[2] = system: johnsongrass (Sorghum halepense)
From the text: as §1, §2

[3] = system: morningglory (pitted morningglory, Ipomoea lacunosa)
From the text: as §1, §2

[4] = system: chickweed (common chickweed, Stellaria media)
From the text: as §1, §2

kochia (Kochia scoparia) = system: kochia (Kochia scoparia)
From the text: as §1, §2

[5] = system: dallisgrass (Paspalum dilatatum)
From the text: as §1, §2

[6] = system: quackgrass (Elytrigia repens)
From the text: as §1, §2

[7] = system: pigweed (Amaranthus retroflexus)
From the text: as §1, §2

[8] = system: sandbur (southern sandbur, Cenchrus echinatus)
From the text: as §1, §2

[9] = system: mustard, black (black mustard, Brassica nigra)
From the text: as §1, §2

[10] = system: Surinam grass (Brachiaria decumbens)
From the text: as §1, §2

[11] = system: large (Lg) crabgrass (Digitaria sanguinalis)
From the text: as §1, §2

[12] = system: barnyardgrass (Echinochloa crus-galli)
From the text: as §1, §2

[13] = system: mallow (common mallow, Malva sylvestris)
From the text: as §1, §2

[14] = system: leafy spurge (Euphorbia esula)
From the text: as §1, §2

[15] = system: ragweed (common ragweed, Ambrosia elatior)
From the text: as §1, §2

[16] = system: sowthistle (common sowthistle, Sonchus oleraceous)
From the text: as §1, §2

[17] = system: bluegrass (annual bluegrass, Poa annua)
From the text: as §1, §2

[18] = system: dayflower (Virginia (VA) dayflower, Commelina virginica)
From the text: as §1, §2

[19] = system: buckwheat, wild (wild buckwheat, Polygonum convolvulus)
From the text: as §1, §2

[20] = system: bermudagrass (Cynodon dactylon)
From the text: as §1, §2

[21] = system: nutsedge, purple (purple nutsedge, Cyperus rotundus)
From the text: as §1, §2

[22] = system: signalgrass (broadleaf signalgrass, Brachiaria platyphylla)
From the text: as §1, §2

[23] = system: foxtail, green (green foxtail, Setaria viridis)
From the text: as §1, §2

[24] = system: crabgrass, naked (naked crabgrass, Digitaria nuda)
From the text: as §1, §2

[25] = system: wild poinsettia (Euphorbia heterophylla)
From the text: as §1, §2

## N#Cc1cccc(Oc2ncc(Cl)cn2)c1Oc1ncc(Cl)cn1 [Compound 3, 2,3-bis[(5-chloro-2-pyrimidinyl)oxy]benzonitrile]
[1]; 62 g ai/ha
  Plant response rating, Ryegrass, Italian: 95
[1]; 125 g ai/ha
  Plant response rating, Ryegrass, Italian: 100
[1]; 250 g ai/ha
  Plant response rating, Ryegrass, Italian: 100
[2]; 62 g ai/ha
  Plant response rating, Johnsongrass: 75
[2]; 125 g ai/ha
  Plant response rating, Johnsongrass: 100
[2]; 250 g ai/ha
  Plant response rating, Johnsongrass: 100
[3]; 62 g ai/ha
  Plant response rating, Morningglory, Pitt: 100
[3]; 125 g ai/ha
  Plant response rating, Morningglory, Pitt: 100
[3]; 250 g ai/ha
  Plant response rating, Morningglory, Pitt: 100
[4]; 62 g ai/ha
  Plant response rating, Chickweed: 100
[4]; 125 g ai/ha
  Plant response rating, Chickweed: 100
[4]; 250 g ai/ha
  Plant response rating, Chickweed: 100
Kochia (Kochia scoparia); 62 g ai/ha
  Plant response rating, Kochia: 100
Kochia (Kochia scoparia); 125 g ai/ha
  Plant response rating, Kochia: 100
Kochia (Kochia scoparia); 250 g ai/ha
  Plant response rating, Kochia: 100
[5]; 62 g ai/ha
  Plant response rating, Dallisgrass: 100
[5]; 125 g ai/ha
  Plant response rating, Dallisgrass: 100
[5]; 250 g ai/ha
  Plant response rating, Dallisgrass: 100
[6]; 62 g ai/ha
  Plant response rating, Quackgrass: 65
[6]; 125 g ai/ha
  Plant response rating, Quackgrass: 90
[6]; 250 g ai/ha
  Plant response rating, Quackgrass: 98
[7]; 62 g ai/ha
  Plant response rating, Pigweed: 100
[7]; 125 g ai/ha
  Plant response rating, Pigweed: 100
[7]; 250 g ai/ha
  Plant response rating, Pigweed: 100
[8]; 62 g ai/ha
  Plant response rating, Sandbur: 35
[8]; 125 g ai/ha
  Plant response rating, Sandbur: 100
[8]; 250 g ai/ha
  Plant response rating, Sandbur: 100
[9]; 62 g ai/ha
  Plant response rating, Mustard, Black: 100
[9]; 125 g ai/ha
  Plant response rating, Mustard, Black: 100
[9]; 250 g ai/ha
  Plant response rating, Mustard, Black: 100
[10]; 62 g ai/ha
  Plant response rating, Surinam Grass: 75
[10]; 125 g ai/ha
  Plant response rating, Surinam Grass: 100
[10]; 250 g ai/ha
  Plant response rating, Surinam Grass: 100
[11]; 62 g ai/ha
  Plant response rating, Crabgrass, Large: 100
[11]; 125 g ai/ha
  Plant response rating, Crabgrass, Large: 100
[11]; 250 g ai/ha
  Plant response rating, Crabgrass, Large: 100
[12]; 62 g ai/ha
  Plant response rating, Barnyardgrass: 98
[12]; 125 g ai/ha
  Plant response rating, Barnyardgrass: 100
[12]; 250 g ai/ha
  Plant response rating, Barnyardgrass: 100
[13]; 62 g ai/ha
  Plant response rating, Mallow: 100
[13]; 125 g ai/ha
  Plant response rating, Mallow: 100
[13]; 250 g ai/ha
  Plant response rating, Mallow: 100
[14]; 62 g ai/ha
  Plant response rating, Leafy Spurge: 98
[14]; 125 g ai/ha
  Plant response rating, Leafy Spurge: 100
[14]; 250 g ai/ha
  Plant response rating, Leafy Spurge: 98
[15]; 62 g ai/ha
  Plant response rating, Ragweed: 85
[15]; 125 g ai/ha
  Plant response rating, Ragweed: 100
[15]; 250 g ai/ha
  Plant response rating, Ragweed: 100
[16]; 62 g ai/ha
  Plant response rating, Sowthistle: 100
[16]; 125 g ai/ha
  Plant response rating, Sowthistle: 100
[16]; 250 g ai/ha
  Plant response rating, Sowthistle: 100
[17]; 62 g ai/ha
  Plant response rating, Bluegrass: 80
[17]; 125 g ai/ha
  Plant response rating, Bluegrass: 100
[17]; 250 g ai/ha
  Plant response rating, Bluegrass: 100
[18]; 62 g ai/ha
  Plant response rating, Dayflower, VA: 98
[18]; 125 g ai/ha
  Plant response rating, Dayflower, VA: 100
[18]; 250 g ai/ha
  Plant response rating, Dayflower, VA: 100
[19]; 62 g ai/ha
  Plant response rating, Buckwheat, Wild: 100
[19]; 125 g ai/ha
  Plant response rating, Buckwheat, Wild: 100
[19]; 250 g ai/ha
  Plant response rating, Buckwheat, Wild: 100
[20]; 62 g ai/ha
  Plant response rating, Bermudagrass: 100
[20]; 125 g ai/ha
  Plant response rating, Bermudagrass: 100
[20]; 250 g ai/ha
  Plant response rating, Bermudagrass: 100
[21]; 62 g ai/ha
  Plant response rating, Nutsedge, Purple: 40
[21]; 125 g ai/ha
  Plant response rating, Nutsedge, Purple: 60
[21]; 250 g ai/ha
  Plant response rating, Nutsedge, Purple: 85
[22]; 62 g ai/ha
  Plant response rating, Signalgrass: 100
[22]; 125 g ai/ha
  Plant response rating, Signalgrass: 100
[22]; 250 g ai/ha
  Plant response rating, Signalgrass: 100
[23]; 62 g ai/ha
  Plant response rating, Foxtail, Green: 100
[23]; 125 g ai/ha
  Plant response rating, Foxtail, Green: 100
[23]; 250 g ai/ha
  Plant response rating, Foxtail, Green: 100
[24]; 62 g ai/ha
  Plant response rating, Crabgrass, Naked: 100
[24]; 125 g ai/ha
  Plant response rating, Crabgrass, Naked: 100
[24]; 250 g ai/ha
  Plant response rating, Crabgrass, Naked: 100
[25]; 62 g ai/ha
  Plant response rating, Poinsettia, Wild: 95
[25]; 125 g ai/ha
  Plant response rating, Poinsettia, Wild: 95
[25]; 250 g ai/ha
  Plant response rating, Poinsettia, Wild: 100
